Molecular target: T1, Ptch1 (Homo sapiens, UniProt Q13635)
T1 construct: human Ptch1 with C-terminal His-tag, DDM-solubilized from yeast membranes
T1 sequence (Q13635 1-1447): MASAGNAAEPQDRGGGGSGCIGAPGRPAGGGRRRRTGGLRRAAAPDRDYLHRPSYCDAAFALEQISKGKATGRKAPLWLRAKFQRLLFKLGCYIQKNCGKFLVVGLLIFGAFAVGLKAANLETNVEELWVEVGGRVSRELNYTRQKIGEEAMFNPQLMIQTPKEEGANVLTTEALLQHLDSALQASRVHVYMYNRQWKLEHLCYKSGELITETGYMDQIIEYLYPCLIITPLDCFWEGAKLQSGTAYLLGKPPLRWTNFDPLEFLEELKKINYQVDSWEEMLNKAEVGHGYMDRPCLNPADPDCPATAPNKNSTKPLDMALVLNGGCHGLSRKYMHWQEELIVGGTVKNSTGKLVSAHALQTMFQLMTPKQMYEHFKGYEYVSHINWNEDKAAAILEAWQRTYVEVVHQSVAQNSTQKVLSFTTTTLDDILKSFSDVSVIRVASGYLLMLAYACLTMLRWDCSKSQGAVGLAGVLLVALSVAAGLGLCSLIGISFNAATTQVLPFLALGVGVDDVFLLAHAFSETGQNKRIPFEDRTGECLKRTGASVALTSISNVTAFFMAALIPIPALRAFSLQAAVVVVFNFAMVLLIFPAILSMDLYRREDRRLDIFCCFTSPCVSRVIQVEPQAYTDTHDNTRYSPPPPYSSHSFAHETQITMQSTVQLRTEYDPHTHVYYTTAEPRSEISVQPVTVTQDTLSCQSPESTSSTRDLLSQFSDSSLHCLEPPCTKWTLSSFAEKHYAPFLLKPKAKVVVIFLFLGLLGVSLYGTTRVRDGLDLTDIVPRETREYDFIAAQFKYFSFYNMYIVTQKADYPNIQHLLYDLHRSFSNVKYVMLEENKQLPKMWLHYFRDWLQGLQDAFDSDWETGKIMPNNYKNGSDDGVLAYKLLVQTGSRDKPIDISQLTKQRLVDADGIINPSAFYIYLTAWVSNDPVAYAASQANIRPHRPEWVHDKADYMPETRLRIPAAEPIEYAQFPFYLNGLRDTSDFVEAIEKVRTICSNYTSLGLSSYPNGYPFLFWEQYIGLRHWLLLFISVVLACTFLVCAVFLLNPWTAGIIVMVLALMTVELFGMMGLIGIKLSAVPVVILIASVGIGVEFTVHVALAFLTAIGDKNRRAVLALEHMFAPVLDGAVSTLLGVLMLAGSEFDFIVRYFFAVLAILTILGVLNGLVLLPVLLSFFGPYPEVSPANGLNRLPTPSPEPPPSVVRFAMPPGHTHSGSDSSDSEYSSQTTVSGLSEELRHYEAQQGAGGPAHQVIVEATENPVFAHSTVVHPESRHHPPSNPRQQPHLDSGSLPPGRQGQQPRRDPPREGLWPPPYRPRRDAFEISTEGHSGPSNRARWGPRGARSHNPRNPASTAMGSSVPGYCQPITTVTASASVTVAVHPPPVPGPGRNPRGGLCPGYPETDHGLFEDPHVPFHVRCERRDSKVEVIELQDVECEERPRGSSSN
Experiment: microscale thermophoresis on DDM-solubilized membranes from yeast expressing human Ptch1 (His-tag labelled)
Format: binding

Kd: ~7 µM
SMILES: CSc1ccc2c(c1)C(N1CCN(C)CC1)Cc1ccccc1S2 (stereo not shown) [P375, methiothepin]

— PMC8037503, “Methiothepin Increases Chemotherapy Efficacy against Resistant Melanoma Cells” (Molecules, 2021)
